The NIST ThermoML archive (doi:10.1021/acs.jced.9b00327)
± gives the expanded uncertainty stated by the source.

Legend:
[1] = mn = molality of the nth substance listed, in mol/kg; conditions: 100 kPa, Liquid; for speed of sound: Single path-length method; for mass density: Vibrating tube method
[2] = 100 kPa, Liquid, Single path-length method

## Cn1c(=O)c2c(ncn2C)n(C)c1=O [caffeine] + O
[1]; 293.15 K, m1 = 0.005
  speed of sound: 1483 ± 4 m/s
  mass density: 998.731 ± 1 kg/m3
[1]; 293.15 K, m1 = 0.01
  speed of sound: 1483.5 ± 4 m/s
  mass density: 998.986 ± 1 kg/m3
[1]; 293.15 K, m1 = 0.02
  speed of sound: 1484 ± 4 m/s
  mass density: 999.492 ± 1 kg/m3
[1]; 293.15 K, m1 = 0.04
  speed of sound: 1485.1 ± 4 m/s
  mass density: 1000.68 ± 1 kg/m3
[1]; 293.15 K, m1 = 0.06
  speed of sound: 1486.2 ± 4 m/s
  mass density: 1001.78 ± 1 kg/m3
[1]; 298.15 K, m1 = 0.005
  speed of sound: 1497.2 ± 4 m/s
  mass density: 997.275 ± 1 kg/m3
[1]; 298.15 K, m1 = 0.01
  speed of sound: 1497.6 ± 4 m/s
  mass density: 997.549 ± 1 kg/m3
[1]; 298.15 K, m1 = 0.02
  speed of sound: 1498 ± 4 m/s
  mass density: 998.082 ± 1 kg/m3
[1]; 298.15 K, m1 = 0.04
  speed of sound: 1499 ± 4 m/s
  mass density: 999.091 ± 1 kg/m3
[1]; 298.15 K, m1 = 0.06
  speed of sound: 1500.1 ± 4 m/s
  mass density: 1000.02 ± 1 kg/m3
[1]; 303.15 K, m1 = 0.005
  speed of sound: 1509.5 ± 4 m/s
  mass density: 996.169 ± 1 kg/m3
[1]; 303.15 K, m1 = 0.01
  speed of sound: 1509.8 ± 4 m/s
  mass density: 996.422 ± 1 kg/m3
[1]; 303.15 K, m1 = 0.02
  speed of sound: 1510.3 ± 4 m/s
  mass density: 996.912 ± 1 kg/m3
[1]; 303.15 K, m1 = 0.04
  speed of sound: 1511.2 ± 4 m/s
  mass density: 997.986 ± 1 kg/m3
[1]; 303.15 K, m1 = 0.06
  speed of sound: 1512.1 ± 4 m/s
  mass density: 999.147 ± 1 kg/m3
[1]; 308.15 K, m1 = 0.005
  speed of sound: 1520.1 ± 4 m/s
  mass density: 994.279 ± 1 kg/m3
[1]; 308.15 K, m1 = 0.01
  speed of sound: 1520.4 ± 4 m/s
  mass density: 994.556 ± 1 kg/m3
[1]; 308.15 K, m1 = 0.02
  speed of sound: 1520.8 ± 4 m/s
  mass density: 995.092 ± 1 kg/m3
[1]; 308.15 K, m1 = 0.04
  speed of sound: 1521.6 ± 4 m/s
  mass density: 996.095 ± 1 kg/m3
[1]; 308.15 K, m1 = 0.06
  speed of sound: 1522.4 ± 4 m/s
  mass density: 997.015 ± 1 kg/m3
[1]; 313.15 K, m1 = 0.005
  speed of sound: 1529.1 ± 4 m/s
  mass density: 992.732 ± 1 kg/m3
[1]; 313.15 K, m1 = 0.01
  speed of sound: 1529.4 ± 4 m/s
  mass density: 992.974 ± 1 kg/m3
[1]; 313.15 K, m1 = 0.02
  speed of sound: 1529.8 ± 4 m/s
  mass density: 993.452 ± 1 kg/m3
[1]; 313.15 K, m1 = 0.04
  speed of sound: 1530.4 ± 4 m/s
  mass density: 994.51 ± 1 kg/m3
[1]; 313.15 K, m1 = 0.06
  speed of sound: 1531.2 ± 4 m/s
  mass density: 995.632 ± 1 kg/m3
[1]; 318.15 K, m1 = 0.005
  speed of sound: 1536.7 ± 4 m/s
  mass density: 990.833 ± 1 kg/m3
[1]; 318.15 K, m1 = 0.01
  speed of sound: 1537 ± 4 m/s
  mass density: 990.981 ± 1 kg/m3
[1]; 318.15 K, m1 = 0.02
  speed of sound: 1537.2 ± 4 m/s
  mass density: 991.327 ± 1 kg/m3
[1]; 318.15 K, m1 = 0.04
  speed of sound: 1537.8 ± 4 m/s
  mass density: 992.156 ± 1 kg/m3
[1]; 318.15 K, m1 = 0.06
  speed of sound: 1538.5 ± 4 m/s
  mass density: 992.958 ± 1 kg/m3

## O [water]
[2]; 313.15 K
  speed of sound: 1528.9 ± 4 m/s
[2]; 318.15 K
  speed of sound: 1536.5 ± 4 m/s
